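Values below derive from 48-hour exposures of cells grown in 96-well plates, with endpoints linearly interpolated between the two concentrations bracketing the appropriate inhibition level. At the GI50, growth is halved. Definition used: TGI = concentration required for complete inhibition of growth.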
Assays:
Assay in all cases: NCI-60 cell line screen, 48 h
CCRF-CEM leukemia = test system: CCRF-CEM leukemia
COLO 205 colon = test system: COLO 205 colon
HCC-2998 colon = test system: HCC-2998 colon
HOP-62 NSCLC = test system: HOP-62 NSCLC
HOP-92 NSCLC = test system: HOP-92 NSCLC
HT29 colon = test system: HT29 colon
IGROV1 ovarian = test system: IGROV1 ovarian
NCI/ADR-RES ovarian = test system: NCI/ADR-RES ovarian
OVCAR-8 ovarian = test system: OVCAR-8 ovarian
RXF 393 renal = test system: RXF 393 renal
SF-539 CNS = test system: SF-539 CNS
SK-MEL-5 melanoma = test system: SK-MEL-5 melanoma

Row | SMILES | TGI (CCRF-CEM leukemia) [µM] | TGI (COLO 205 colon) [µM] | TGI (HCC-2998 colon) [µM] | TGI (HOP-62 NSCLC) [µM] | TGI (HOP-92 NSCLC) [µM] | TGI (HT29 colon) [µM] | TGI (IGROV1 ovarian) [µM] | TGI (NCI/ADR-RES ovarian) [µM] | TGI (OVCAR-8 ovarian) [µM] | TGI (RXF 393 renal) [µM] | TGI (SF-539 CNS) [µM] | TGI (SK-MEL-5 melanoma) [µM] | GI50 (CCRF-CEM leukemia) [µM] | GI50 (HT29 colon) [µM] | GI50 (IGROV1 ovarian) [µM] | GI50 (OVCAR-8 ovarian) [µM] | GI50 (SF-539 CNS) [µM] | GI50 (SK-MEL-5 melanoma) [µM]
1 | O=c1cc(-c2cccnc2)[nH]c2cc3c(cc12)OCO3 | > 100 | > 100 | 19.4 | 58.8 | > 100 | 59.3 | > 28.1 | 40 | > 95.3 | > 96.3 | 17.7 | 23.9 | – | – | – | – | – | –
2 | CC1C(C#N)(C#N)C(C#N)=C(N)C1(Cl)[N+](=O)[O-] (stereo unspecified) | 5.12 | 18.5 | 31.8 | 9.72 | 5.91 | 23.5 | 22.5 | 34.2 | 28.7 | 17.4 | 25.2 | 25.4 | – | – | – | – | – | –
3 | C=C1C[C@H](O)[C@H](Br)C(C)(C)C12CCC(C)(Cl)C(Br)C2 (stereo partly specified) | 75 | 2.29 | 15.5 | 12.2 | 8.76 | 0.895 | 18.8 | 20.7 | 15.1 | 10.6 | 42.2 | 12.2 | – | – | – | – | – | –
4 | C[C@@H]1CC[C@@]2(OC1)O[C@H]1C[C@H]3[C@@H]4CC[C@H]5C[C@@H](OC6OC(CO)C(OC7OC(CO)C(O)C(OC8OCC(O)C(O)C8O)C7OC7OC(CO)C(O)C(O)C7O)C(O)C6O)[C@H](O)C[C@]5(C)[C@H]4CC[C@]3(C)[C@H]1[C@@H]2C (stereo partly specified) | 1.53 | 22 | 24.7 | 2.94 | 66.5 | 13.3 | 8.31 | 12.6 | 9.64 | 27.1 | 12.8 | 45.8 | – | – | – | – | – | –
5 | O=C(c1ccccc1)N1C(=S)N(c2ccccn2)C(=Nc2ccccc2)C1=Nc1ccccc1 | > 24.7 | > 52.7 | > 100 | > 84 | 20.8 | > 100 | > 64.1 | > 48.3 | > 100 | 25.9 | 44.9 | > 50 | – | – | – | – | – | –
6 | CSc1nc2c(c(=O)[nH]1)N=C(c1ccccc1)CC(c1ccccc1)N2 (stereo unspecified) | > 100 | > 100 | > 100 | > 100 | > 100 | > 100 | > 100 | > 100 | > 100 | 79.6 | 66.3 | 88.4 | – | – | – | – | – | –
7 | CN(C)c1ccc(C=C2C(=O)NC(=S)NC2=O)c2ccccc12 | > 100 | > 100 | > 100 | > 100 | 91.4 | > 100 | > 100 | > 100 | 77 | 76.4 | > 100 | > 100 | – | – | – | – | – | –
8 | CCOC(=O)c1c(NC(=S)Nc2ccccc2)sc2c1CCOC2 | > 100 | > 100 | > 100 | > 100 | 89.4 | > 100 | > 100 | > 100 | > 100 | > 100 | > 100 | > 100 | – | – | – | – | – | –
9 | COC(=O)CCC(NC(=O)OC(C)(C)C)C(=O)NC(Cc1ccc(NC(=O)CCCC(C)=O)cc1)C(=O)NC(CCC(=O)OC)C(=O)OC (stereo unspecified) | > 100 | > 100 | > 100 | > 100 | > 100 | > 100 | > 100 | > 100 | > 100 | > 100 | > 100 | > 100 | – | – | – | – | – | –
10 | O=C(c1cc2c(c3ccccc13)NC1(CCCCC1)N=C2C(F)(F)F)C(F)(F)F | 13.1 | 18.1 | 10.4 | > 100 | 13.4 | 13.4 | 17.3 | 17 | 15.8 | 12.7 | 5.59 | 18.2 | – | – | – | – | – | –
11 | N#Cc1c(O)c(/C=N/c2ncccn2)c(=O)n2c1[nH]c1ccccc12 | > 100 | > 100 | > 100 | – | > 100 | > 100 | > 100 | > 100 | > 100 | > 100 | > 100 | > 100 | – | – | – | – | – | –
12 | CC(=O)Nc1cccc(N=NN(C)C)c1 | > 100 | > 100 | > 100 | > 100 | > 100 | > 100 | > 100 | > 100 | > 100 | > 100 | > 100 | > 100 | – | – | – | – | – | –
13 | O=C1CC(=O)NC(=NNS(=O)(=O)c2ccc(Cl)cc2)N1 | > 100 | > 100 | > 100 | > 100 | > 100 | > 100 | > 100 | > 100 | > 100 | > 100 | > 100 | > 100 | – | – | – | – | – | –
14 | Cc1[nH]c(=O)nc(NNCc2ccc(Cl)cc2)c1C(=O)Nc1ccc(Cl)cc1 | > 100 | > 100 | > 100 | > 100 | > 100 | – | > 100 | > 100 | > 100 | > 100 | > 100 | > 100 | – | – | – | – | – | –
15 | NS(=O)(=O)c1ccc(/C=C/c2ccc(O)cc2)cc1 | > 100 | 35.3 | 40.6 | 82.9 | 39.5 | 35.1 | 84.9 | > 100 | 31.9 | > 100 | 37.7 | 29 | 4.5 | 17.8 | 20.2 | 4.81 | 7.4 | –
16 | CCOC1CC(C)N(C(=O)c2ccccc2)O1 (stereo unspecified) | > 100 | – | > 100 | > 100 | > 100 | > 100 | > 100 | > 100 | > 100 | > 100 | > 100 | > 100 | – | – | – | – | – | –
17 | CCOC(=O)c1cccc(NC(=O)CI)c1 | – | 1.86 | 4.34 | 2.44 | 3.57 | 0.646 | 1.02 | 1.96 | 0.687 | 2.74 | 1.31 | 1.22 | – | – | – | – | – | –
18 | C#CC1(O)CCCCCCCCC2(CCCCCCCC1)OCCO2 | – | 33.2 | 29.5 | 44.5 | 33.3 | 35.4 | 30.3 | 34.7 | 34.4 | 24.5 | 31.8 | 33.4 | – | – | – | – | – | –
19 | COc1cc(OC)c2[nH]c3c(O)c(-c4c(C)cc5c([nH]c6c(OC)cc(OC)cc65)c4O)c(C)cc3c2c1 | – | – | 15.3 | 23.9 | 15.6 | 14.8 | 13.7 | 16.6 | 15.3 | 16.8 | 16.8 | 15.2 | – | 8.03 | – | – | – | 8.38
20 | O=C1CC(NCc2ccccc2)c2c(Cl)sc(Cl)c21 (stereo unspecified) | 9.44 | 56 | 35.7 | > 88.1 | 64.8 | 74.5 | > 64.6 | > 86.3 | 48.5 | – | 57.5 | > 100 | – | – | – | – | – | –
21 | OC1CSc2nc3ccccc3n2C1 (stereo unspecified) | > 100 | > 100 | > 100 | – | > 100 | > 100 | > 100 | > 100 | > 100 | > 100 | > 100 | > 100 | – | – | – | – | – | –
22 | COC(=O)CC1c2ccccc2N2C(=O)Cc3c([nH]c4ccccc34)C12 (stereo unspecified) | > 100 | > 100 | > 100 | > 100 | > 100 | > 100 | > 100 | > 100 | > 100 | > 100 | – | > 100 | – | – | – | – | – | –
23 | COc1ccc(NC(=S)c2ccoc2C)cc1CC(=O)OC(C)C | > 100 | 36.7 | > 100 | – | 67.9 | 36.3 | > 100 | 58.7 | > 100 | – | > 100 | > 100 | – | – | – | – | – | –
24 | CN1CC2CN(Cc3ccccc3)CCN2c2cccnc21 (stereo unspecified) | > 100 | > 100 | – | > 100 | > 100 | 87.9 | > 100 | > 100 | > 100 | > 100 | > 100 | > 100 | – | – | – | – | – | –
25 | COc1cccc(/C=C2\S/C(=N/Nc3nc(-c4ccc([N+](=O)[O-])cc4)cs3)NC2=O)c1O | 63.3 | 33 | 33.7 | 34.1 | 33.6 | 52.6 | 27.1 | 53.3 | 48.3 | – | 22 | 25.5 | – | – | – | – | – | –
26 | Cc1ccc(C(=O)N/N=C(\N=Nc2ccc(C(=O)O)cc2)c2ccc(N(CCC#N)CCC#N)cc2C)cc1 | > 100 | > 100 | > 100 | > 100 | > 100 | > 100 | – | > 100 | > 100 | > 100 | > 100 | > 100 | – | – | – | – | – | –
27 | COC(=O)C12OC3CO[Si](C(C)C)(C(C)C)O[Si](C(C)C)(C(C)C)OC3C1Oc1nc(=O)ccn12 (stereo unspecified) | 41 | 32.9 | – | 32.2 | 27.7 | 29.3 | 24 | 29.2 | 29 | 30.6 | 30.2 | 29.7 | – | – | – | – | – | –
28 | Fc1ccc(C(OCCN2CC3CCC(C2)N3CCCc2ccccc2)c2ccc(F)cc2)cc1 | 15.6 | 2.74 | 8.06 | 21.3 | 21.1 | 13.7 | 21.1 | 15.2 | 5.39 | – | 3.63 | 3.4 | – | – | – | – | – | –
